{"source": "patent US20120009239A1", "about": "“Prebiotic Formulations for use with Probiotics to Increase Probiotic Growth Rate and Activity” (MASTER SUPPLEMENTS, INC., priority 2010, published 2012)", "key": {"[1]": {"system": "L. acidophilus NCFM (LA-1)", "experiment": "Growth (turbidity) and lactic acid producing activity of L. acidophilus NCFM in MRS broth with polysorbate 80 or substitute", "type": "cell-based, Lactobacillus acidophilus", "details": "for Lactic Acid % / pH: additive at 0.1% in MRS; for NTU (Turbidity): additive at 0.1% in MRS (polysorbate 80 control 1.0 g per liter)", "procedure": "The prebiotics of this invention can be in the same capsule or formulation as the probiotics, or in a separate dosage form. The prebiotics should be in a separate dosage form if they are naturally occurring, as opposed to adsorbed. […] Prebiotic formulations are often probiotic strain dependent. […] At specified time intervals, a 30 ml sample from each flask was aseptically transferred into a HACH […] Turbidimeter sample cell. The turbidity of each sample was read and the results were reported in NTU's. The same 30 ml sample used for the turbidity reading was transferred into a 250 ml glass beaker, and the pH was recorded. The sample was titrated using 0.1N NaOH to an endpoint of pH 6.8, and the quantity of NaOH used was recorded. The % Lactic Acid was calculated using the following formula: % Lactic Acid=((mls of 0.1N NaOH)×(0.1N)×(90 gm/mole)×(1 L/1000 ml))×100 mls of sample % Lactic Acid=(mls of 0.1N NaOH)×(0.9) (Results reported at 12 hours and 23 hours like: 12/23 in Table I below)"}, "[2]": {"system": "Lactobacillus paracasei Lpc-37 (F-19)", "experiment": "Growth and lactic acid producing activity of Lactobacillus paracasei Lpc-37 in MRS broth", "type": "cell-based", "details": "for Lactic Acid % / pH: additive at 0.1% in MRS; for NTU (Turbidity): additive at 0.1% in MRS (polysorbate 80 control 1.0 g per liter)", "text": "(§1) The prebiotics of this invention can be in the same capsule or formulation as the probiotics, or in a separate dosage form. The prebiotics should be in a separate dosage form if they are naturally occurring, as opposed to adsorbed. The prebiotics of this invention may be taken with carbohydrate or fiber to increase their effectiveness. Prebiotic formulations are often probiotic strain dependent. Some Lactobacillus strains, for example, respond best to a form of lecithin derived from sunflowers (Sunflower Lecithin) while others show no preference to lecithin type and respond equally well to soy lecithin. Other strains show a synergistic response when lecithin is used together with oleic acid. […] Each flask was tempered to 37° C. and aseptically inoculated with 0.14 gm of the individual probiotic strains (in Examples 5 to 10 below) to be tested. At specified time intervals, a 30 ml sample from each flask was aseptically transferred into a HACH […] Turbidimeter sample cell. The turbidity of each sample was read and the results were reported in NTU's. The same 30 ml sample used for the turbidity reading was transferred into a 250 ml glass beaker, and the pH was recorded. The sample was titrated using 0.1N NaOH to an endpoint of pH 6.8, and the quantity of NaOH used was recorded. The % Lactic Acid was calculated using the following formula: % Lactic Acid=((mls of 0.1N NaOH)×(0.1N)×(90 gm/mole)×(1 L/1000 ml))×100 mls of sample % Lactic Acid=(mls of 0.1N NaOH)×(0.9) (Results reported at 12 hours and 23 hours like: 12/23 in Table III below)"}, "[3]": {"system": "Lactobacillus rhamnosus—Lr-32 (LR-44)", "experiment": "Growth and lactic acid producing activity of Lactobacillus rhamnosus Lr-32 in MRS broth", "type": "cell-based", "details": "for Lactic Acid % / pH: additive at 0.1% in MRS; for NTU (Turbidity): additive at 0.1% in MRS (polysorbate 80 control 1.0 g per liter)", "text": "as §1, with “IV” for “III”"}, "[4]": {"system": "Lactobacillus salivarius—Ls-33 (LS-30)", "experiment": "Growth and lactic acid producing activity of Lactobacillus salivarius Ls-33 in MRS broth", "type": "cell-based", "details": "for Lactic Acid % / pH: additive at 0.1% in MRS; for NTU (Turbidity): additive at 0.1% in MRS (polysorbate 80 control 1.0 g per liter)", "text": "as §1, with “V” for “III”"}, "[5]": {"system": "THERALAC® Lot # 32310A, a commercial probiotic product", "experiment": "Growth of the commercial probiotic […] in MRS broth", "type": "cell-based", "details": "for Lactic Acid % / pH: additive at 0.1% in MRS; for NTU (Turbidity): additive at 0.1% in MRS (polysorbate 80 control 1.0 g per liter), THERALAC inoculated at 0.1%", "procedure": "MRS broth was prepared with (for controls) and without (for tests) polysorbate 80 and filled into 1 liter screw cap flasks at 500 ml each and autoclaved at 121° C. for 30 minutes. Various lecithin and/or oleic acid additives, or nothing (negative control), was added to the tests flasks prior to autoclaving. The flasks were then tempered to 37° C. in a water bath and inoculated at 0.1% with […]® Lot # 32310A, a commercial probiotic product (Master Supplements, Inc., Victoria, Minn.). Capsules of […]® were opened and the contents mixed aseptically to serve as the inoculum source. At an inoculation rate of 0.1%, approximately 80 million CFU was added per ml of MRS media. […]® contains (formulation strength) the following probiotic strains at the approximate CFU values listed per gram: Lactobacillus acidophilus NCFM (LA-1): 30 billion CFU Bifidobacterium lactis B1-04 (BL-34): 30 billion CFU Lactobacillus paracasei Lpc-37 (F-19): 14 billion CFU Lactobacillus rhamnosus Lr-32 (LR-44): 6 billion CFU Bifidobacterium lactis Bi-07: 8 billion CFU Turbidity, pH and titrations (made with 0.1 N NaOH and reported as % lactic acid) were made at various times up to 23 hours. The results are presented below in Table VI for the 12 and 23-hour analyses."}, "[6]": {"system": "Bifidobacterium lactic Bl-04 (BL-34)", "experiment": "Growth and lactic acid producing activity of Bifidobacterium lactis Bl-04 in MRS broth", "type": "cell-based", "details": "for Lactic Acid % / pH: additive at 0.1% in MRS; for NTU (Turbidity): additive at 0.1% in MRS (polysorbate 80 control 1.0 g per liter)", "text": "as §1, with “II” for “III”"}, "[7]": {"details": "at the concentrations studied (0.1% + 0.1%)"}}}
{"compound": "CCCCCCCC/C=C\\CCCCCCCC(=O)O", "note": "[Oleic Acid]", "values": [{"measurement": "Replacement of polysorbate 80 (growth and activity), conclusion in words", "setting": "[1]; 0.1% inclusion rate", "value": "somewhat effective"}, {"measurement": "Replacement of polysorbate 80 (growth and activity), conclusion in words", "setting": "[2]; 0.1% inclusion rate", "value": "not as effective a replacement for polysorbate 80 as sunflower lecithin"}, {"measurement": "Synergy with sunflower lecithin", "setting": "[2]; [7]", "value": "does not appear to be synergistic"}, {"measurement": "Replacement of polysorbate 80 (growth and activity), conclusion in words", "setting": "[3]; 0.1% inclusion rate", "value": "not as good a replacement for polysorbate 80 as sunflower lecithin"}, {"measurement": "Lactic Acid %", "setting": "[3]; 12 hours", "value": 0.072, "unit": "%"}, {"measurement": "pH", "setting": "[3]; 12 hours", "value": 6.2}, {"measurement": "pH", "setting": "[3]; 23 hours", "value": 4.1}, {"measurement": "Synergy with sunflower lecithin", "setting": "[3]; [7]", "value": "not synergistic"}, {"measurement": "Replacement of polysorbate 80 (growth and activity), conclusion in words", "setting": "[4]; 0.1% inclusion rate", "value": "not as good a replacement"}, {"measurement": "Lactic Acid %", "setting": "[4]; 12 hours", "value": 0.073, "unit": "%"}, {"measurement": "pH", "setting": "[4]; 12 hours", "value": 4.4}, {"measurement": "pH", "setting": "[4]; 23 hours", "value": 3.8}, {"measurement": "Replacement of polysorbate 80 (growth and activity), conclusion in words", "setting": "[5]; 0.1% inclusion rate", "value": "acceptable replacement value for polysorbate 80"}]}
{"compound": "Polysorbate 80", "values": [{"measurement": "Lactic Acid %", "setting": "[1]; 12 hours", "value": 1.09, "unit": "%"}, {"measurement": "pH", "setting": "[1]; 12 hours", "value": 4.2}, {"measurement": "NTU (Turbidity)", "setting": "[1]; 12 hours", "value": 1855, "unit": "NTU"}, {"measurement": "Lactic Acid %", "setting": "[1]; 23 hours", "value": 1.27, "unit": "%"}, {"measurement": "pH", "setting": "[1]; 23 hours", "value": 4.1}, {"measurement": "NTU (Turbidity)", "setting": "[1]; 23 hours", "value": 2038, "unit": "NTU"}, {"measurement": "Lactic Acid %", "setting": "[6]; 12 hours", "value": 0.57, "unit": "%"}, {"measurement": "pH", "setting": "[6]; 12 hours", "value": 4.8}, {"measurement": "NTU (Turbidity)", "setting": "[6]; 12 hours", "value": 922, "unit": "NTU"}, {"measurement": "Lactic Acid %", "setting": "[6]; 23 hours", "value": 0.84, "unit": "%"}, {"measurement": "pH", "setting": "[6]; 23 hours", "value": 4.5}, {"measurement": "NTU (Turbidity)", "setting": "[6]; 23 hours", "value": 1434, "unit": "NTU"}, {"measurement": "Lactic Acid %", "setting": "[2]; 12 hours", "value": 0.99, "unit": "%"}, {"measurement": "pH", "setting": "[2]; 12 hours", "value": 4.2}, {"measurement": "NTU (Turbidity)", "setting": "[2]; 12 hours", "value": 1664, "unit": "NTU"}, {"measurement": "Lactic Acid %", "setting": "[2]; 23 hours", "value": 1.39, "unit": "%"}, {"measurement": "pH", "setting": "[2]; 23 hours", "value": 3.9}, {"measurement": "NTU (Turbidity)", "setting": "[2]; 23 hours", "value": 2824, "unit": "NTU"}, {"measurement": "Lactic Acid %", "setting": "[3]; 12 hours", "value": 1.12, "unit": "%"}, {"measurement": "pH", "setting": "[3]; 12 hours", "value": 4.0}, {"measurement": "NTU (Turbidity)", "setting": "[3]; 12 hours", "value": 2804, "unit": "NTU"}, {"measurement": "Lactic Acid %", "setting": "[3]; 23 hours", "value": 1.67, "unit": "%"}, {"measurement": "pH", "setting": "[3]; 23 hours", "value": 3.7}, {"measurement": "NTU (Turbidity)", "setting": "[3]; 23 hours", "value": 3776, "unit": "NTU"}, {"measurement": "Lactic Acid %", "setting": "[4]; 12 hours", "value": 1.42, "unit": "%"}, {"measurement": "pH", "setting": "[4]; 12 hours", "value": 3.8}, {"measurement": "NTU (Turbidity)", "setting": "[4]; 12 hours", "value": 3426, "unit": "NTU"}, {"measurement": "Lactic Acid %", "setting": "[4]; 23 hours", "value": 1.68, "unit": "%"}, {"measurement": "pH", "setting": "[4]; 23 hours", "value": 3.7}, {"measurement": "NTU (Turbidity)", "setting": "[4]; 23 hours", "value": 3931, "unit": "NTU"}, {"measurement": "Lactic Acid %", "setting": "[5]; 12 hours", "value": 1.42, "unit": "%"}, {"measurement": "pH", "setting": "[5]; 12 hours", "value": 3.9}, {"measurement": "NTU (Turbidity)", "setting": "[5]; 12 hours", "value": 3311, "unit": "NTU"}, {"measurement": "Lactic Acid %", "setting": "[5]; 23 hours", "value": 1.84, "unit": "%"}, {"measurement": "pH", "setting": "[5]; 23 hours", "value": 3.7}, {"measurement": "NTU (Turbidity)", "setting": "[5]; 23 hours", "value": 3694, "unit": "NTU"}]}
